Measurements as given in PubChem BioAssay (NCI).
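Briefly, cells in 96-well plates were exposed to five compound concentrations for 48 h, and endpoints were estimated by linear interpolation. GI50 is the concentration that inhibits growth by half. The concentration for full growth arrest is given as TGI.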

What was measured:
Test in all cases: NCI tumour cell line growth inhibition, 48 h
[1] = system: TK-10 renal
[2] = system: EKVX NSCLC
[3] = system: K-562 leukemia
[4] = system: HCT-15 colon
[5] = system: IGROV1 ovarian
[6] = system: OVCAR-3 ovarian
[7] = system: SN12C renal
[8] = system: 786-0 renal
[9] = system: HL-60(TB) leukemia
[10] = system: T-47D breast

Structure (SMILES): O=C(Cc1nc2ccccc2o1)C(=O)Nc1cccc(C(F)(F)F)c1
- TGI [1]: > 100 µM
- TGI [2]: > 100 µM
- TGI [3]: > 100 µM
- TGI [4]: > 100 µM
- TGI [5]: > 100 µM
- TGI [6]: > 100 µM
- TGI [7]: > 100 µM
- TGI [8]: > 100 µM
- TGI [9]: > 100 µM

Structure (SMILES): Cc1cccc(NC(=O)/C(=N\N)C(c2cnc3ccc([N+](=O)[O-])cc3n2)[N+](=O)[O-])c1C (stereo unspecified)
- TGI [1]: > 100 µM
- TGI [2]: > 100 µM
- TGI [4]: > 100 µM
- TGI [5]: > 100 µM
- TGI [6]: > 100 µM
- TGI [7]: > 100 µM
- TGI [8]: > 100 µM
- TGI [9]: > 100 µM

Structure (SMILES): c1cc(-c2cn3c(n2)SCC3)ccn1
- TGI [1]: > 100 µM
- TGI [2]: > 100 µM
- TGI [3]: > 31.6 µM
- TGI [4]: > 59 µM
- TGI [5]: > 100 µM
- TGI [6]: > 100 µM
- TGI [7]: > 100 µM
- TGI [8]: 44.5 µM
- TGI [9]: > 67.5 µM

Structure (SMILES): N#CC1(C#N)C(c2ccccc2)C=CC12OCCCO2 (stereo unspecified)
- TGI [1]: > 100 µM
- TGI [2]: > 100 µM
- TGI [3]: > 100 µM
- TGI [5]: > 100 µM
- TGI [6]: > 100 µM
- TGI [7]: > 100 µM
- TGI [8]: > 100 µM
- TGI [9]: 92.3 µM

Structure (SMILES): COc1ccc(/C=C(\C)[N+](=O)[O-])cc1OC
- GI50 [1]: 1.55 µM
- TGI [1]: 3.12 µM
- GI50 [3]: 2.17 µM
- TGI [3]: > 100 µM
- GI50 [4]: 1.4 µM
- TGI [4]: 3.54 µM
- GI50 [10]: 1.88 µM
- TGI [10]: 5.1 µM
- GI50 [5]: 2.16 µM
- TGI [5]: 5.51 µM
- GI50 [6]: 1.87 µM
- TGI [6]: 3.29 µM
- GI50 [7]: 2.72 µM
- TGI [7]: 8.23 µM
- GI50 [8]: 1.93 µM
- TGI [8]: 3.57 µM

Structure (SMILES): CC(=O)/C(=C\c1ccccc1O)C(=O)Nc1ccccc1C
- TGI [2]: 96.8 µM
- TGI [3]: > 100 µM
- TGI [4]: 45.3 µM
- TGI [5]: 79 µM
- TGI [6]: 72 µM
- TGI [8]: 29.4 µM
- TGI [9]: 41.8 µM

Structure (SMILES): CCOC(=O)/C(I)=C/c1cc(OC)c(OC)c(OC)c1
- TGI [1]: 35.1 µM
- TGI [2]: 42.9 µM
- TGI [3]: > 100 µM
- TGI [4]: 17.1 µM
- TGI [5]: 93.7 µM
- TGI [6]: 14.1 µM
- TGI [7]: 24.6 µM
- TGI [8]: 33 µM
- TGI [9]: 26.1 µM

Structure (SMILES): Fc1cccc(F)c1C(Nc1nncs1)Nc1nncs1
- TGI [1]: > 100 µM
- TGI [3]: > 100 µM
- TGI [4]: > 100 µM
- TGI [10]: > 100 µM
- TGI [5]: > 100 µM
- TGI [6]: > 100 µM
- TGI [7]: > 100 µM
- TGI [8]: > 100 µM

Structure (SMILES): CCOC(=O)c1cc2c(cc1Cl)SC(=Nc1ccccc1)N(S(=O)(=O)c1ccc(Br)s1)S2(=O)=O
- GI50 [1]: 15.9 µM
- TGI [1]: 30.4 µM
- GI50 [2]: 15.5 µM
- TGI [2]: 32.3 µM
- GI50 [3]: 4.73 µM
- TGI [3]: 21.1 µM
- GI50 [4]: 13.5 µM
- TGI [4]: 27.1 µM
- GI50 [10]: 15.6 µM
- TGI [10]: 53.9 µM
- GI50 [5]: 17.7 µM
- TGI [5]: 53.4 µM
- GI50 [6]: 12.2 µM
- TGI [6]: 24.7 µM
- GI50 [7]: 17.3 µM
- TGI [7]: 33.9 µM
- GI50 [8]: 17.5 µM
- TGI [8]: 32.6 µM

Structure (SMILES): COc1ccc(-c2[nH]c3ccccc3c2CCNS(=O)(=O)c2ccc(C)cc2)cc1
- TGI [1]: > 10 µM
- TGI [2]: > 10 µM
- TGI [3]: > 10 µM
- TGI [4]: > 10 µM
- TGI [5]: > 10 µM
- TGI [6]: > 10 µM
- TGI [7]: > 10 µM
- TGI [8]: > 10 µM
- TGI [9]: > 10 µM

Structure (SMILES): O=C(Nc1ccccc1OC(=O)c1ccccc1)c1ccccc1
- GI50 [1]: 31.5 µM
- TGI [1]: > 100 µM
- GI50 [2]: 7.45 µM
- TGI [2]: > 100 µM
- GI50 [3]: 3.22 µM
- TGI [3]: > 100 µM
- GI50 [4]: 4.37 µM
- TGI [4]: > 100 µM
- GI50 [10]: 41.9 µM
- TGI [10]: > 100 µM
- GI50 [5]: 2.91 µM
- TGI [5]: 17.1 µM
- GI50 [6]: 3.94 µM
- TGI [6]: 22.2 µM
- GI50 [7]: 28.1 µM
- TGI [7]: > 100 µM
- GI50 [8]: 15.6 µM
- TGI [8]: > 100 µM

Structure (SMILES): CCOC(=O)C1Nc2ccccc2[C@H]2OCC[C@@H]12 (stereo partly specified)
- TGI [1]: > 100 µM
- TGI [2]: > 100 µM
- TGI [3]: > 100 µM
- TGI [4]: > 100 µM
- TGI [5]: > 100 µM
- TGI [6]: > 100 µM
- TGI [7]: > 100 µM
- TGI [8]: > 100 µM
- TGI [9]: > 100 µM

Structure (SMILES): COc1cc2ncc3c(nc4sccn43)c2cc1OC
- GI50 [1]: 11.1 µM
- TGI [1]: 29.5 µM
- GI50 [2]: 20.7 µM
- TGI [2]: > 100 µM
- GI50 [3]: 31.6 µM
- TGI [3]: > 100 µM
- GI50 [4]: 11.1 µM
- TGI [4]: > 100 µM
- GI50 [10]: 29.2 µM
- TGI [10]: > 100 µM
- GI50 [6]: 13.1 µM
- TGI [6]: 42 µM
- GI50 [7]: 22.5 µM
- TGI [7]: 89.3 µM
- GI50 [8]: 14.6 µM
- TGI [8]: 40.2 µM

Structure (SMILES): O=Cc1ccc2c(c1I)OCO2
- TGI [1]: > 100 µM
- TGI [2]: > 100 µM
- TGI [3]: > 100 µM
- TGI [4]: > 100 µM
- TGI [5]: > 100 µM
- TGI [6]: > 100 µM
- TGI [7]: > 100 µM
- TGI [8]: > 100 µM
- TGI [9]: > 100 µM

Structure (SMILES): CCCC(S(=O)(=O)c1ccccc1)S(=O)(=O)c1ccccc1
- TGI [1]: > 100 µM
- TGI [2]: > 100 µM
- TGI [3]: > 100 µM
- TGI [4]: > 100 µM
- TGI [5]: > 100 µM
- TGI [6]: > 100 µM
- TGI [8]: > 100 µM
- TGI [9]: > 100 µM

Structure (SMILES): N#CNc1nc(N)c(-c2ccc(Cl)cc2)c(C(=O)Nc2nccs2)n1
- TGI [1]: > 100 µM
- TGI [2]: > 100 µM
- TGI [3]: > 100 µM
- TGI [4]: > 100 µM
- TGI [5]: > 100 µM
- TGI [6]: > 100 µM
- TGI [7]: > 100 µM
- TGI [8]: > 100 µM
- TGI [9]: > 100 µM

Structure (SMILES): Cc1cc2c(c(C(N)=O)c1C)-c1cc(Cl)cc(Cl)c1C2=O
- TGI [1]: > 100 µM
- TGI [2]: > 100 µM
- TGI [3]: > 100 µM
- TGI [4]: > 100 µM
- TGI [5]: > 100 µM
- TGI [6]: > 100 µM
- TGI [7]: > 100 µM
- TGI [8]: > 100 µM
- TGI [9]: > 100 µM

Structure (SMILES): CC(C)(C)c1cc2nc(c1)C(C(F)(F)F)(C(F)(F)F)OB(Br)OC2(C(F)(F)F)C(F)(F)F
- TGI [1]: 5.5 µM
- TGI [2]: 0.727 µM
- TGI [3]: 10 µM
- TGI [4]: 13.8 µM
- TGI [5]: 8.83 µM
- TGI [7]: 7.26 µM
- TGI [8]: 1.81 µM

Structure (SMILES): COc1cc(C(=O)c2cc(C)c3[nH]c4ccc(O)cc4c3c2C)cc(OC)c1OC
- GI50 [1]: 4.24 µM
- TGI [1]: > 100 µM
- GI50 [2]: 0.0466 µM
- TGI [2]: > 100 µM
- GI50 [3]: < 0.01 µM
- TGI [3]: > 100 µM
- GI50 [4]: 0.0196 µM
- TGI [4]: > 100 µM
- GI50 [5]: 0.0169 µM
- TGI [5]: 20.5 µM
- GI50 [6]: < 0.01 µM
- TGI [6]: 2.17 µM
- GI50 [7]: 0.0415 µM
- TGI [7]: > 100 µM
- GI50 [8]: < 0.0184 µM
- TGI [8]: > 22.2 µM
- GI50 [9]: 0.0246 µM
- TGI [9]: 0.0797 µM

Structure (SMILES): CC1=C(C(=O)Nc2ccc(Cl)c(Cl)c2)C(c2ccc([N+](=O)[O-])cc2)C(C(=O)Nc2ccc(Cl)c(Cl)c2)=C(C)N1
- TGI [1]: 55 µM
- TGI [2]: 15.4 µM
- TGI [4]: 7.88 µM
- TGI [5]: 14.8 µM
- TGI [6]: 4.56 µM
- TGI [7]: 7.3 µM
- TGI [8]: 11.1 µM
